From ChEMBL document CHEMBL1155949, “Blockade of glucocorticoid excess at the tissue level: inhibitors of 11beta-hydroxysteroid dehydrogenase type 1 as a therapy for type 2 diabetes” (J Med Chem, 2008) come the findings set out here.

In assay [1] the test system is Corticosteroid 11-beta-dehydrogenase isozyme 2 (Homo sapiens). As to the kind of experiment: Inhibition of 11beta-HSD2 in human SW620 cells at 10 uM. The settings on record: SW-620.
Assay [2] can be described thus: Inhibition of cynomolgus monkey 11beta-HSD1 mediated conversion of prednisone to prednisolone. Also on record: species or system Macaca fascicularis.

A word on the inhibition: it is the change of the read-out against control, counted positive when it falls. `O=C(Nc1cccc(C(=O)N2CCC[C@H]3CCCC[C@@H]32)c1)c1ccccc1`: the inhibition in assay [1] was determined as 12%.

The Ki is a measure of affinity in units of concentration, obtained from inhibition or displacement. On to `N#Cc1ccc(-c2ccc(S(=O)(=O)Nc3cccc(N)n3)cc2)cc1`, for which the affinity in assay [2] corresponds to a Ki of 2.3 nM.
